Our source for the IC50 values is patent US20150258101A1 (Proximagen Limited, priority 2014, published 2015).

In general, IC50 refers to the midpoint of a concentration-inhibition curve.

Some results are limits rather than exact numbers.

This assay has as its target T1, purified recombinantly expressed human SSAO (Homo sapiens, UniProt Q16853).
T1 construct: made in house
T1 sequence (Q16853 1-763): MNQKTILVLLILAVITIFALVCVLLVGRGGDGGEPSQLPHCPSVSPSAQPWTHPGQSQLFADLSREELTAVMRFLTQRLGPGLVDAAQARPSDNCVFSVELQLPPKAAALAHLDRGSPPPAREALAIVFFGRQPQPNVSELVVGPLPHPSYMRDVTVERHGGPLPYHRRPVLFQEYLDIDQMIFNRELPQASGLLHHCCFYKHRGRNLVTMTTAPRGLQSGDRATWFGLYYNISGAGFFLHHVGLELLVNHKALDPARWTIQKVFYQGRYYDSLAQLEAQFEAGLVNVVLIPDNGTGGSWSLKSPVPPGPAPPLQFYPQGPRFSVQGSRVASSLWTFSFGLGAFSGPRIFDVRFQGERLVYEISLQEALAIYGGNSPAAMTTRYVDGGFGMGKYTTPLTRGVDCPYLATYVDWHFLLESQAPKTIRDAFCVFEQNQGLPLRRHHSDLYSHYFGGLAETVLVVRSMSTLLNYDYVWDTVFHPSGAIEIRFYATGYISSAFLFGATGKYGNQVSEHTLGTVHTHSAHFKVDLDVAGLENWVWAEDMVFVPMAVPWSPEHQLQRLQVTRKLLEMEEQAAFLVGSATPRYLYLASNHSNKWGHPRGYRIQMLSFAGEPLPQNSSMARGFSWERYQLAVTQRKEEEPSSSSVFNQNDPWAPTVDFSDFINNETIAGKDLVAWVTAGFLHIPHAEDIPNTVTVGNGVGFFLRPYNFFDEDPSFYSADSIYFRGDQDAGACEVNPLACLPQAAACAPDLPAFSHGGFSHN
Kind of assay: SSAO enzyme inhibition assay (benzylamine substrate; hydrogen peroxide/HRP-coupled or 14C aldehyde detection). It is filed as biochemical. The following applies: SSAO inhibitory activity, RT. On the procedure: All primary assays were performed at RT. with purified recombinantly expressed human SSAO. Enzyme was prepared essentially as described in Öhman et al. (Protein Expression and Purification 46 (2006) 321-331). In addition, secondary- and selectivity assays were performed using SSAO prepared from various tissues or purified rat recombinant SSAO. The enzyme activity was assayed with benzylamine as substrate by measuring either benzaldehyde production, using ^14C-labeled substrate, or by utilizing the production of hydrogen peroxide in a horseradish peroxidase (HRP) coupled reaction. Briefly, test compounds were dissolved in dimethyl sulfoxide (DMSO) to a concentration of 10 mM. Dose-response measurements were assayed by either creating 1:10 serial dilutions in DMSO to produce a 7 point curve or by making 1:3 serial dilutions in DMSO to produce 11 point curves.
In a horseradish peroxidase (HRP) coupled reaction, hydrogen peroxide oxidation of 10-acetyl-3,7-dihydroxyphenoxazine produced resorufin, which is a highly fluorescent compound (Zhout and Panchuk-Voloshina. Analytical Biochemistry 253 (1997) 169-174; Amplex® Red Hydrogen Peroxide/peroxidase Assay kit, Invitrogen A22188). Enzyme and compounds in 50 mM sodium phosphate, pH 7.4 were set to pre-incubate in flat-bottomed microtiter plates for approximately 15 min before initiating the reaction by addition of a mixture of HRP, benzylamine and Amplex reagent. Benzylamine concentration was fixed at a concentration corresponding to the Michaelis constant, determined using standard procedures. Fluorescence intensity was then measured at several time points during 1-2 h, exciting at 544 nm and reading the emission at 590 nm. For the human SSAO assay final concentrations of the reagents in the assay wells were: SSAO enzyme 1 ug/ml, benzylamine 100 uM, Amplex reagent 20 uM, HRP 0.1 U/mL and varying concentrations of test compound. The inhibition was measured as % decrease of the signal compared to a control without inhibitor (only diluted DMSO). The background signal from a sample containing no SSAO enzyme was subtracted from all data points. Data was fitted to a four parameter logistic model and IC50 values were calculated using the Graph Pad Prism 4 or XLfit 4 programs.
SSAO activity was assayed using 14C-labeled benzylamine and analysed by measuring radioactive benzaldehyde. In a white 96-well optiplate (Packard), 20 uL of diluted test compound was pre-incubated at room temperature with 20 uL SSAO enzyme for approximately 15 min with continuous agitation. All dilutions were made with PBS. The reaction was initiated by adding 20 uL of the benzylamine substrate solution containing [7-14C] Benzylamine hydrochloride (CFA589, GE Healthcare). The plate was incubated for 1 h as above after which the reaction was stopped by acidification (10 uL 1M aq HCl). Then 90 uL Micro Scint-E solution (Perkin-Elmer) was added to each well and the plate was continuously mixed for 15 min. Phase separation occurred instantly and activity was read in a Topcount scintillation counter (Perkin-Elmer). In the final reaction well, the human recombinant SSAO concentration was 10 ug/ml. In order to optimize sensitivity, the substrate concentration was decreased as compared to the HRP coupled assay in order to get a higher fraction of radioactive product. In the human SSAO assay, benzylamine concentration was 40 uM (0.2 uCi/mL). Data was analysed as above.
Regarding `Clc1ccc(-n2c(-c3cnc(NCC4CC4)nc3)cc3ccncc32)cc1` [Example 149, 5-[1-(4-Chlorophenyl)-1H-pyrrolo[2,3-c]pyridin-2-yl]-N-(cyclopropylmethyl)pyrimidin-2-amine], the IC50 was under 50 nM.
With `O=c1cc(-c2cc3ccncc3n2-c2ccc(Cl)cc2)cn[nH]1` [Example 146, 5-[1-(4-Chlorophenyl)-1H-pyrrolo[2,3-c]pyridin-2-yl]-2,3-dihydropyridazin-3-one], the IC50 is 50 to 200 nM.
The result for `O=c1cc(-c2nc3ccncc3n2-c2ccc(F)cc2)ccn1C1CC1` [Example 115, 1-Cyclopropyl-4-[3-(4-fluorophenyl)-3H-imidazo[4,5-c]pyridin-2-yl]-1,2-dihydropyridin-2-one] reads under 50 nM.
The result for `Clc1ccc(-n2c(-c3cnc[nH]3)nc3ccncc32)cc1` [Example 44, 5-[3-(4-Chlorophenyl)-3H-imidazo[4,5-c]pyridin-2-yl]-1H-imidazole] reads 200 to 1200 nM; that for `CCn1ccc(-c2cc3ccncc3n2-c2ccc(Cl)cc2)cc1=O` [Example 144, 4-[1-(4-Chlorophenyl)-1H-pyrrolo[2,3-c]pyridin-2-yl]-1-ethyl-1,2-dihydropyridin-2-one], 50 to 200 nM.
In the case of `Cn1ccc(-c2nc3ccncc3n2-c2ccc(F)cc2)cc1=O` [Example 114, 4-[3-(4-Fluorophenyl)-3H-imidazo[4,5-c]pyridin-2-yl]-1-methyl-1,2-dihydropyridin-2-one] it was 200 to 1200 nM; in that of `Cn1nccc1-c1cc2ccncc2n1-c1ccc(Cl)cc1` [Example 134, 5-[1-(4-Chlorophenyl)-1H-pyrrolo[2,3-c]pyridin-2-yl]-1-methyl-1H-pyrazole], under 50 nM.
Regarding `Oc1ccc(-n2c(-c3ccc(N4CCOCC4)nc3)nc3ccncc32)cc1` [Example 65, 4-{2-[6-(Morpholin-4-yl)pyridin-3-yl]-3H-imidazo[4,5-c]pyridin-3-yl}phenol], the half-inhibitory concentration (IC50) is under 50 nM.
The result for `O=C(NC1CC1)c1ccc(-c2nc3ccncc3n2-c2ccc(Cl)cc2)cn1` [Example 14, 5-[3-(4-Chlorophenyl)-3H-imidazo[4,5-c]pyridin-2-yl]-N-cyclopropylpyridine-2-carboxamide] reads 200 to 1200 nM; that for `Cc1cc(NCC2CC2)ncc1-c1nc2ccncc2n1-c1ccc(F)cc1` [Example 101, N-(Cyclopropylmethyl)-5-[3-(4-fluorophenyl)-3H-imidazo[4,5-c]pyridin-2-yl]-4-methylpyridin-2-amine], 50 to 200 nM; that for `Fc1ccc(-n2c(-c3cnc(N4CCOCC4)nc3)nc3ccncc32)c(Cl)c1` [Example 56, 4-{5-[3-(2-Chloro-4-fluorophenyl)-3H-imidazo[4,5-c]pyridin-2-yl]pyrimidin-2-yl}morpholine], 200 to 1200 nM.
In the case of `Cc1ccc(-n2c(-c3cnc(N4CCOCC4)cc3C)nc3ccncc32)cc1` [Example 97, 4-{4-Methyl-5-[3-(4-methylphenyl)-3H-imidazo[4,5-c]pyridin-2-yl]pyridin-2-yl}morpholine] it was 200 to 1200 nM; in that of `Fc1ccc(-n2c(-c3cnc(N4CCOCC4)nc3)nc3ccncc32)nc1` [Example 76, 4-{5-[3-(5-Fluoropyridin-2-yl)-3H-imidazo[4,5-c]pyridin-2-yl]pyrimidin-2-yl}morpholine], 50 to 200 nM.
The result for `Cc1ccc(-n2c(-c3ccc(N4C[C@@H](C)O[C@@H](C)C4)nc3)nc3ccncc32)cn1` [Example 103, (2R,6S)-2,6-Dimethyl-4-{5-[3-(6-methylpyridin-3-yl)-3H-imidazo[4,5-c]pyridin-2-yl]pyridin-2-yl}morpholine; tris(trifluoroacetic acid)] reads 50 to 200 nM; that for `Cc1nc(C)c(-c2cc3ccncc3n2-c2ccc(Cl)cc2)[nH]1` [Example 126, 5-[1-(4-Chlorophenyl)-1H-pyrrolo[2,3-c]pyridin-2-yl]-2,4-dimethyl-1H-imidazole], under 50 nM; that for `Fc1ccc(-n2c(-c3ccc(OC4CCOCC4)nc3)nc3ccncc32)cc1` [Example 113, 5-[3-(4-Fluorophenyl)-3H-imidazo[4,5-c]pyridin-2-yl]-2-(oxan-4-yloxy)pyridine], under 50 nM.
For the compound `Brc1ccc(-n2c(-c3cnc(N4CCOCC4)nc3)nc3ccncc32)cc1` [Example 59, 4-{5-[3-(4-Bromophenyl)-3H-imidazo[4,5-c]pyridin-2-yl]pyrimidin-2-yl}morpholine], the half-inhibitory concentration (IC50) lay in the range of 50 to 200 nM.
In the case of `Cc1ccc(-n2c(-c3ccc(N4C[C@@H](C)O[C@@H](C)C4)nc3)nc3ccncc32)nc1` [Example 104, (2R,6S)-2,6-Dimethyl-4-{5-[3-(5-methylpyridin-2-yl)-3H-imidazo[4,5-c]pyridin-2-yl]pyridin-2-yl}morpholine] it was under 50 nM; in that of `Cc1cc(F)ccc1-n1c(-c2ccc(N3CCOCC3)nc2)nc2ccncc21` [Example 62, 4-{5-[3-(4-Fluoro-2-methylphenyl)-3H-imidazo[4,5-c]pyridin-2-yl]pyridin-2-yl}morpholine], 50 to 200 nM; in that of `Cc1ccc(-n2c(-c3cnc(N4CCOCC4)nc3)nc3ccncc32)cn1` [Example 58, 4-{5-[3-(6-Methylpyridin-3-yl)-3H-imidazo[4,5-c]pyridin-2-yl]pyrimidin-2-yl}morpholine], 200 to 1200 nM.
`O=c1cc(N2CCOCC2)[nH]cc1-c1nc2ccncc2n1-c1ccc(F)cc1` [Example 99, 5-[3-(4-Fluorophenyl)-3H-imidazo[4,5-c]pyridin-2-yl]-2-(morpholin-4-yl)-1,4-dihydropyridin-4-one]: the IC50 is under 50 nM.
In the case of `CCOCCNc1ncc(-c2nc3ccncc3n2-c2ccc(F)cc2)cn1` [Example 42, N-(2-Ethoxyethyl)-5-[3-(4-fluorophenyl)-3H-imidazo [4,5-c]pyridin-2-yl]pyrimidin-2-amine] it was 50 to 200 nM; in that of `Cn1cc(-c2nc3ccncc3n2-c2ccc(Cl)cc2)ccc1=O` [Example 33, 5-[3-(4-Chlorophenyl)-3H-imidazo[4,5-c]pyridin-2-yl]-1-methyl-1,2-dihydropyridin-2-one], 200 to 1200 nM.
In the case of `Clc1ccc(-n2c(-c3cccnc3)nc3ccncc32)cc1` [Example 1, 3-[3-(4-Chlorophenyl)-3H-imidazo[4,5-c]pyridin-2-yl]pyridine] it was 200 to 1200 nM; in that of `CCOCCNc1ncc(-c2nc3ccncc3n2-c2ccc(C)cc2)cn1` [Example 43, N-(2-Ethoxyethyl)-5-[3-(4-methylphenyl)-3H-imidazo [4,5-c]pyridin-2-yl] pyrimidin-2-amine], under 50 nM.
The result for `Cc1cc(N2CCOCC2)ncc1-c1cc2ccncc2n1-c1ccc(Cl)cc1` [Example 129, 4-{5-[1-(4-Chlorophenyl)-1H-pyrrolo[2,3-c]pyridin-2-yl]-4-methylpyridin-2-yl}morpholine; bis(trifluoroacetic acid)] reads under 50 nM.
